Patent US9320271B2, “Microbial composition” (Rohm and Haas Company, priority 2011, dated 2016)
“And” between values parts separate entries of the source, which are not always exact repeats. Equal entries are not always repeated.

Legend:
[1] = test system: Escherichia coli (E. coli—ATCC #10536); test: Automated assessment of efficacy in surfactant base (2.85% sodium cocoyl glycinate and 1.85% sodium lauroamphoacetate, pH 10.0), 15 seconds exposure; assay type: cell-based; details: for No. of replicates showing growth (out of 4) / Δ OD 450 nm = OD450 (time = 16 hours) − OD450 (time zero), Mean / Δ OD 590 nm OD590 (time = 16 hours) − OD590 (time zero), Mean: alone, model surfactant solution; for MBC (minimum biocidal concentration): in 2.85% sodium cocoyl glycinate + 1.85% sodium lauroamphoacetate solution at pH 10, E. coli
Experimental: Test Methodology for Automated Assessment of Efficacy in Surfactant Base Microbiocidal Activity of Actives as Per the Invention in a Model Surfactant Medium Test Methodology for Automated Assessment of Efficacy in Surfactant Base In these examples, the efficacy of combinations of actives were tested in a surfactant cleansing formulation comprising 2.85% sodium cocoyl glycinate and 1.85% sodium lauroamphoacetate. This corresponds to a 50% in use dilution with water of a neat formulation containing 5.7% cocoyl glycinate and […] % sodium, lauroamphoacetate during hand washing. Solutions were prepared such that the concentrations of the surfactant components and test actives were 1.1× the final desired concentration in order to allow for dilution with the bacterial inoculum in the test. The solutions were manually adjusted to pH 10.0 by dropwise addition of sodium hydroxide solution, as measured with a pH meter at ambient temperature. The efficacy of the combinations of the present invention was determined against Escherichia coli (E. coli—ATCC #10536), at a concentration of approximately 1×10^8 bacteria per mL. Tests were conducted using standard microtiter plate assays using an automated liquid handling system. 270 μl of the surfactant test solution was pipetted into each well of the microtitre plate and 30 μl of the bacterial suspension was then added. Alter exactly 15 seconds of bacterial exposure, a 30 μl volume of bacterial cells was withdrawn and transferred to 270 μl of D/E quench solution. After 5 minutes in the D/E quench, the optical density (OD) was measured for each plate in turn at two specific wavelengths (450 nm and 590 nm). These provide a dual check of antimicrobial activity, as the OD450 reading is specific for the yellow colour of D/E quench when bacterial growth is observed, whereas OD590 is specific for the initial purple colour of the D/E quench which is retained if no bacterial growth is observed. After the time zero OD measurements, plates were then incubated at 37° C. overnight (16 hours) before repeating the OD measurements. Delta OD values were calculated by subtracting […]. Bacterial growth is observed as an increase in OD450 and a decrease in ΔOD590. To identify antibacterially efficacious systems (those preventing appreciable bacterial growth after incubation), the following threshold changes in OD readings have been adopted: if (1). OD450 increases by less than 0.2 absorbance unit on incubation and (2). OD590 decreases by less than 0.35 unit on incubation. Conversely, where OD450 increases by more than 0.2 AU and OD590 decreases by more than 0.35 unit after incubation, corresponding to a colour shift from purple to yellow, the test system allows bacterial growth and is not deemed efficacious. Four replicate measurements in the same plate have been made for each test system. The number of replicate wells showing either bacterial growth or no growth is also readily assessed by eye by following the colour change. Dose responses for individual components and binary mixtures of actives at a fixed concentration ratio were generated by sequential dilution of liquors with further surfactant solution to obtain a series of endpoints. […] In some selected cases, the combinations were also tested at the weight ratio 1:1.

[2] = test system: Escherichia coli (E. coli—ATCC #10536); test: Synergy test: high resolution MBC microtiter plate assay, phosphate buffer containing 35% dipropylene glycol, 15 seconds contact; assay type: cell-based; details: E. coli 10536; for SI (Synergy Index): at Qa and Qb, less than one = synergy; for MBC of the component acting alone (QA / QB; Qa or Qb where the other component is 0): complete kill in 15 seconds
Source text: The concentrations and ratios may also vary under different test conditions or with different test methods.
One measure of synergy is the industrially accepted method described by Kull, F. C.; Eisman, P. C.; Sylwestrowicz, H. D, and Mayer, R. L., in Applied Microbiology 9:538-541 (1961), using the ratio determined by the formula: […]=Synergy Index (“SI”) wherein; QA=concentration of compound A (first component) in percent, acting alone, which produced an end point (MBC of Compound A). Qa=concentration of compound A in percent, in the mixture, which produced an end point. QB=concentration of compound B (second component) in percent, acting alone, which, produced an end point (MBC of Compound B). Qb=concentration of compound B in percent, in the mixture, which produced an end point.
When the sum of Qa/QA and Qb/QB is greater than one, antagonism is indicated. […] The lower the SI, the greater is the synergy shown by that particular mixture. The minimum biocidal concentration (MBC) of a microbicide is the lowest concentration tested under a specific set of conditions that provides complete kill of the tested microorganisms.
Synergy tests were conducted using standard microliter plate assays with phosphate buffer containing 35% dipropylene glycol (DPG). In this method, a wide range of combinations of chemicals was tested by conducting high resolution MBC assays of Component (A) in the presence of various concentrations of Component (B). High resolution MBCs were determined by adding varying amounts of microbicide to one column of a microliter plate and doing subsequent […] dilutions using an automated liquid handling, system to obtain a series of closely spaced endpoints. The MBC plate was inoculated one column at a time with the test microorganism. An aliquot of the inoculated well was transferred at 15 seconds to a plate containing a neutralizing agent (D/E Neutralizing Broth), mixed and held for 5 minutes before being transferred to a growth plate containing trypticase soy broth (TSB). The TSB plate was incubated at 37° C. and read for the presence/absence of growth at 24 hours. The lowest level tested that provided complete kill (as evidenced by no growth in the microtitre plate) of the test organisms in 15 seconds is the minimum biocidal concentration (MBC).
The synergy of the combinations of the present invention was determined against a bacterium, Escherichia coli (E. coli—ATCC #10536), at a concentration of approximately 1×10^8 it bacteria per mL. This microorganism is representative of natural contaminants in many consumer and industrial applications.

SMILES | No. of replicates showing growth (out of 4) ([1]; 0.1% w/v) | Δ OD 450 nm = OD450 (time = 16 hours) − OD450 (time zero), Mean ([1]; 0.1% w/v) | Δ OD 590 nm OD590 (time = 16 hours) − OD590 (time zero), Mean ([1]; 0.1% w/v) | No. of replicates showing growth (out of 4) ([1]; 0.2% w/v) | Δ OD 450 nm = OD450 (time = 16 hours) − OD450 (time zero), Mean ([1]; 0.2% w/v) | Δ OD 590 nm OD590 (time = 16 hours) − OD590 (time zero), Mean ([1]; 0.2% w/v) | No. of replicates showing growth (out of 4) ([1]; […] w/v) | Δ OD 450 nm = OD450 (time = 16 hours) − OD450 (time zero), Mean ([1]; […] w/v) | Δ OD 590 nm OD590 (time = 16 hours) − OD590 (time zero), Mean ([1]; […] w/v) | SI (Synergy Index) [2] | MBC of the component acting alone (QA / QB; Qa or Qb where the other component is 0) [2] | MBC (minimum biocidal concentration) [1] [% w/v] | also measured
Oc1ccc2c(c1)CCCC2 [5,6,7,8-tetrahydronaphthalen-2-ol] | 4 | −1.56 | 0.32 | 4 | −1.55 | 0.36 | 4 | −1.60 | 0.31 | 1.00 | 0.8 weight % and 0.6 weight % | – | –
CC(C)(C)c1ccc(O)c(O)c1 [4-tert-butylbenzene-1,2-diol] | – | – | – | 4 | −1.66 | 0.17 | 4 | −1.63 | 0.20 | 1.00 | 1.00 weight % and 1.0 weight % | >0.2 | No. of replicates showing growth (out of 4) ([1]; 0.125% w/v): 4; Δ OD 450 nm = OD450 (time = 16 hours) − OD450 (time zero), Mean ([1]; 0.125% w/v): −1.63; Δ OD 590 nm OD590 (time = 16 hours) − OD590 (time zero), Mean ([1]; 0.125% w/v): 0.22
C=C(C)[C@@H]1CC=C(CO)CC1 [(S)-(−) perillyl alcohol] | – | – | – | 4 | −1.49 | 0.29 | – | – | – | – | – | – | No. of replicates showing growth (out of 4) ([1]; 0.5% w/v): 0; Δ OD 450 nm = OD450 (time = 16 hours) − OD450 (time zero), Mean ([1]; 0.5% w/v): −0.04; Δ OD 590 nm OD590 (time = 16 hours) − OD590 (time zero), Mean ([1]; 0.5% w/v): 0.07
CC1=CCC(C(C)CO)CC1 (stereo not shown) [2-(4-methylcyclohex-3-enyl)propan-1-ol] | – | – | – | – | – | – | – | – | – | 1.00 | 0.3 weight % and 0.25 weight % | – | MBC of the component acting alone (QA / QB; Qa or Qb where the other component is 0) ([2]; listed as 2-(4-methylcylohex-3-enyl)propan-1-ol): 0.25 weight %
CC1=CC(C)C(CO)C(C)C1 (stereo not shown) [Isocyclo-Geraniol] | – | – | – | 4 | −1.50 | 0.29 | 4 | – | – | – | – | – | No. of replicates showing growth (out of 4) ([1]; 0.4% w/v): 0; Δ OD 450 nm = OD450 (time = 16 hours) − OD450 (time zero), Mean ([1]; 0.4% w/v): −0.06; Δ OD 590 nm OD590 (time = 16 hours) − OD590 (time zero), Mean ([1]; 0.4% w/v): 0.09
Oc1ccccc1Cc1ccccc1 [2-hydroxydiphenylmethane] | 4 | −0.51 | 0.62 | 4 | −0.51 | 0.63 | 4 | −0.49 | 0.64 | 1.00 | 0.8 weight % and 0.5 weight % and 0.6 weight % | >0.2 | –
Oc1ccccc1C1CCCC1 [2-cyclopentylphenol] | 4 | −0.57 | 0.56 | 4 | −0.52 | 0.61 | 4 | −0.56 | 0.54 | 1.00 | 0.3 weight % and 0.5 weight % | >0.2 | –
Oc1cccc2c1CCCC2 [5,6,7,8-tetrahydronaphthalen-1-ol] | 4 | −0.57 | 0.56 | 4 | −0.47 | 0.65 | 4 | −0.52 | 0.58 | 1.00 | 0.6 weight % | >0.2 | –
Cc1cc(O)c(C(C)C)cc1Cl [4-chloro-2-isopropyl-5-methylphenol, reference compound] | – | – | – | – | – | – | – | – | – | – | – | >0.2 | –
C=C(C)[C@@H]1CC=C(CO)CC1 [(4S)-(4-(prop-1-en-2-yl)cyclohex-1-enyl)methanol] | – | – | – | – | – | – | – | – | – | 1.00 | 0.5 weight % and 0.3 weight % and 0.6 weight % | 0.4 | –
